Measurements reported in patent US20190224260A1, “Metabolic Syndrome Inhibitor” (J-OIL MILLS, INC., priority 2016, published 2019).

Test system: rat primary visceral fat cells
Assay: Cell test: fat droplet area (Oil Red O staining) in visceral fat cells
Assay type: cell-based
Conditions: test solution in DMSO diluted 1000-fold with medium; cultured 2+2 days; vs control group (DMSO); FIG. 15, p 0.01 or less
Method: 100 μL of dimethylsulfoxide (DMSO) was added to 4.147 mg of unsaponifiable matter, or 259.65 μL of dimethylsulfoxide (DMSO) was added to 1.0716 mg of the avenasterol fraction, and which was sonicated for 1 minute to obtain a test solution. The test solution of the unsaponifiable matter (avenasterol concentration: 1.41 mg/ml) was referred to as an unsaponifiable matter group, and the test solution of the avenasterol (avenasterol concentration: 3.60 mg/ml) was referred to as an avenasterol fraction group. Furthermore, a DMSO without the unsaponifiable matter nor the avenasterol fraction (control group) was prepared. Each test solution in each group was diluted 1000-fold with a medium described in the following “Cell test”, and sonicated for 1 minute to obtain a medium with the test solution. […]
The medium was removed, and the inside of the well was washed with 0.5 mL of phosphate buffered saline (PBS). […] The cells were microscopically observed at a magnification of 200 times, and visceral fat cells with stained fat droplets were recorded as images on a recording device of a computer.
Area values of the lipid droplets stained with the Oil Red O on the above-described images were measured using the image processing software ImageJ (1.48 v) (obtained from https://imagej.nih.gov/ij/). The cell test was carried out three times, and four images were recorded in each group for each cell test. […]

For Avenasterol, the “fat accumulation in the fat cell (relative area value of fat droplets)” value was “significantly inhibited”.
